In this test the test system is 653999-131-R-J2-PDC complex spheroids, growth inhibition. As to the kind of experiment: Anticancer human tumor 653999-131-R-J2-PDC patient-derived lung adenocarcinoma cell line growth inhibition [RAS]. Particulars: for viability, T/C: stronger effect = lower value. The text has this: RAS pathway inhibitors in Combinations in Complex Spheroids
A high-throughput screen of multi-cell type tumor spheroids was designed to identify active combinations of RAS pathway inhibitors and targeted small molecules. Complex spheroids include a stromal component modeled by human endothelial cells (HUVEC) and fibroblasts modeled by human mesenchymal stem cells (MSCs). The concentration ranges selected for each drug and investigational agent were based upon clinically achievable concentrations if the clinical Cmax of the agent was known.
Compounds. The drugs and investigational agents: abemaciclib (NSC768073), cobimetinib (NSC768068), divarasib (GDC6063, NSC841802), docetaxel (NSC628503), GDC-1971 (RLY-1971, NSC841576), gemcitabine (NSC613327), inavolisib (NSC800729), ipatasertib (NSC767898), KB-0742 (NSC834161), MRTX-1133 (NSC836407), osimertinib (NSC779217), RMC-4630 (NSC839698), RMC-6236 (NSC851965), RMC-6291 (NSC852671), Ro-3306 (NSC812927), sapanisertib (NSC764658), SN-38 (NSC673596), staurosporine (NSC755774), SY5609 (NSC837396), and tovorafenib (DAY101, NSC766906), were obtained from the National Cancer Institute (NCI) Developmental Therapeutics Program Chemical Repository. The FDA-approved anticancer drug set is available from the NCI Developmental Therapeutics Program. […] The stock solutions were prepared in dimethyl sulfoxide (DMSO, Sigma-Aldrich, St. Louis, MO, cat. D2650) at 800-fold the tested concentration and stored at -70 degrees C prior to their use. All drugs and investigational agents were tested over a range starting from a high concentration at or near the clinical Cmax and decreasing in half-log increments. If the clinical Cmax for an agent had not been determined, the highest concentration tested was 10 microM.
Cell Culture. All cells were maintained in an incubator at 37 degrees C and 5% CO2 with 95% humidity. The PDC lines were cultured according to standard operating procedures established by the NCI PDMR. All PDCs were thawed and cultured in Matrigel-coated flasks prepared with a working solution of 1X Ham's F-12 nutrient mix, without supplementation (Invitrogen, Waltham, MA, cat. 11765054), 100 U/mL penicillin-streptomycin (Invitrogen, cat. 15140122), and 2.5% Matrigel (Corning Inc., Corning, NY, cat. 354248) for the first three passages. The 362531-283-R-J2-PDC and 782815-120-R-J1-PDC lines were cultured in 6C/Colon 1B media, which includes advanced DMEM/F-12 (Thermo Fisher Scientific, cat. 12634028), 10 mM HEPES (Thermo Fisher Scientific, cat. 15630080), 1X GlutaMAX supplement (Thermo Fisher Scientific, cat. 35050061), 0.1 mg/mL primocin (InvivoGen, San Diego, CA, cat. ant-pm-2), 10% defined fetal bovine serum, heat inactivated (HyClone Laboratories Inc., Logan, UT, cat. SH30070.03HI), 50% L-WRN conditioned media (ATCC, cat. CRL-3276), 1.25 mM N-Acetyl-L-cysteine (Sigma-Aldrich, cat. A9165), 10 mM nicotinamide (Sigma-Aldrich, cat. N0636), 1X B-27 supplement (Thermo Fisher Scientific, cat. 17504044), 1X N-2 supplement (Thermo Fisher Scientific, cat. 17502048), 50 ng/mL human EGF (Thermo Fisher Scientific, cat. PHG0311), and 10 microM Y-27632 dihydrochloride (Tocris Bioscience, cat. 1254). The K12877-001-R-J1-PDC line was cultured in 6I media, which includes all 6C/Colon 1B media plus 10 ng/mL human FGF-10 (PeproTech, cat. 100-26), 1 ng/mL human FGF-2 (PeproTech, cat. 100-18B), 1 µM prostaglandin E2 (Tocris Bioscience, cat. 2296), […] hydrocortisone (Sigma-Aldrich, cat. H4001), and […] bovine insulin (Sigma-Aldrich, cat. I6634). The K86415-001-R-J1-PDC line was cultured in 6D media, which includes all 6C/Colon 1B media components minus the L-WRN conditioned media. The 485176-168-R4-J1-PDC was cultured in PANC media, which includes all 6C/Colon 1B media plus 100 ng/mL human FGF-10 (PeproTech, cat. 100-26), 500 nM SB-431542 (Selleckchem, cat. S1067), and 10 nM gastrin (Tocris Bioscience, cat. 3006). […]

Some results are limits rather than exact numbers.

For six compounds, viability, T/C and IC50 results are on record in PubChem BioAssay AID2060886 (Molecular Pharmacology Branch, DTP, NCI, 2025).
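Also: spheroids exposed to the agents for seven days before the readout.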

A word on the viability, T/C: it is the result in the treated group divided by that in the control group, in per cent. Regarding `CC(=O)OC12COC1CC(O)C1(C)C(=O)C(O)C3=C(C)C(OC(=O)C(O)C(NC(=O)OC(C)(C)C)c4ccccc4)CC(O)(C(OC(=O)c4ccccc4)C21)C3(C)C` (stereo not given), the viability, T/C is 57.5% [middle of 4 runs] (compound 0.0316 µM); 58.8% [middle of 4 runs] (compound 0.1 µM); 55.9% [middle of 4 runs] (compound 0.316 µM); 61.6% [middle of 4 runs] (compound 1 µM); 67.2% [middle of 4 runs] (compound 10 µM).

As usually defined, the IC50 is the concentration needed to halve the response being measured. Take `CC1(O)CCCC1n1c(=O)c(C(F)F)cc2cnc(NC3CCN(S(C)(=O)=O)CC3)nc21` (stereo not given): the viability, T/C runs as follows: (compound 0.0316 µM) 89.5% [middle of 4 runs]; (compound 0.1 µM) 69.3% [middle of 4 runs]; (compound 0.316 µM) 65.3% [middle of 4 runs]; (compound 1 µM) 66.8% [middle of 4 runs]; (compound 3.16 µM) 73.8% [middle of 4 runs]; (compound 10 µM) 35.3% [middle of 4 runs]. Besides, under “curve of compound”, the IC50 was 6.68 µM [middle of 4 runs].

As for `CCC(CC)c1cc(NC2CCC(N)C2)n2nccc2n1` (stereo not given), the viability, T/C reads like this: (compound 0.1 µM) 107% [middle of 4 runs]; (compound 0.316 µM) 120% [middle of 4 runs]; (compound 3.16 µM) 14% [middle of 4 runs]; (compound 10 µM) 19.9% [middle of 4 runs]. In addition, the IC50 (curve of compound) is 2.01 µM [middle of 4 runs].

As to `Cc1nc(N2CCC3(CC2)COC(C)C3N)c(CO)nc1Sc1ccnc(N)c1Cl` (stereo not given), the viability, T/C by setting is: (compound 0.0316 µM) 91.2% [middle of 4 runs]; (compound 0.1 µM) 98.4% [middle of 4 runs]; (compound 1 µM) 87.6% [middle of 4 runs]; (compound 3.16 µM) 85.8% [middle of 4 runs]. Besides, the IC50 (curve of compound) was greater than 10000 nM.

Take `NC1c2ccccc2OC12CCN(c1cnc3c(N4CCCc5ncccc54)n[nH]c3n1)CC2` (stereo not given): the viability, T/C (compound 0.0316 µM) was 73.8% [middle of 4 runs]; the viability, T/C (compound 0.316 µM) is 75.5% [middle of 4 runs]; the viability, T/C (compound 1 µM) is 77.6% [middle of 4 runs]; the viability, T/C (compound 3.16 µM) was 83.9% [middle of 4 runs]; the viability, T/C (compound 10 µM) is 78.4% [middle of 4 runs]. In addition, for the setting “curve of compound”, the IC50 was greater than 10000 nM.

As to `C=CC(=O)Nc1cc(Nc2nccc(-c3cn(C)c4ccccc34)n2)c(OC)cc1N(C)CCN(C)C` + C#Cc1c(F)ccc2cc(O)cc(-c3ncc4c(N5CC6CCC(C5)N6)nc(OCC56CCCN5CC(F)C6)nc4c3F)c12, the IC50 runs as follows: (curve of first compound, second compound 0.0316 µM) greater than 1000 nM; (curve of first compound, second compound 0.1 µM) 613 nM; (curve of first compound, second compound 0.316 µM) 61.7 nM; (curve of first compound, second compound 1 µM) 17.7 nM; (curve of first compound, second compound 3.16 µM) less than 3.16 nM; (curve of first compound, second compound 10 µM) less than 3.16 nM. In addition, the viability, T/C (second compound 0.0316 µM, first compound 0.00316 µM) is 96.1%; the viability, T/C (second compound 0.0316 µM, first compound 0.01 µM) was 80.7%; the viability, T/C (second compound 0.0316 µM, first compound 0.0316 µM) is 82.9%; the viability, T/C (second compound 0.0316 µM, first compound 0.1 µM) is 68.3%; the viability, T/C (second compound 0.0316 µM, first compound 0.316 µM) is 55.5%; the viability, T/C (second compound 0.0316 µM, first compound 1 µM) is 63.3%. Besides, the viability, T/C was 89.4% (second compound 0.1 µM, first compound 0.00316 µM); 90.8% (second compound 0.1 µM, first compound 0.01 µM); 57.7% (second compound 0.1 µM, first compound 0.0316 µM); 69.9% (second compound 0.1 µM, first compound 0.1 µM); 57.2% (second compound 0.1 µM, first compound 0.316 µM); 44.3% (second compound 0.1 µM, first compound 1 µM). Also, the viability, T/C by setting is: (second compound 0.316 µM, first compound 0.00316 µM) 77%; (second compound 0.316 µM, first compound 0.01 µM) 95%; (second compound 0.316 µM, first compound 0.0316 µM) 65.1%; (second compound 0.316 µM, first compound 0.1 µM) 37.1%; (second compound 0.316 µM, first compound 0.316 µM) 40.9%; (second compound 0.316 µM, first compound 1 µM) 39.2%. The viability, T/C by setting is: (second compound 1 µM, first compound 0.00316 µM) 60.9%; (second compound 1 µM, first compound 0.01 µM) 53.7%; (second compound 1 µM, first compound 0.0316 µM) 43.2%; (second compound 1 µM, first compound 0.1 µM) 42.8%; (second compound 1 µM, first compound 0.316 µM) 36.1%; (second compound 1 µM, first compound 1 µM) 28.1%. The viability, T/C was 45.6% (second compound 3.16 µM, first compound 0.00316 µM); 35.2% (second compound 3.16 µM, first compound 0.01 µM); 38.3% (second compound 3.16 µM, first compound 0.0316 µM); 25.9% (second compound 3.16 µM, first compound 0.1 µM); 22.8% (second compound 3.16 µM, first compound 0.316 µM); 19.6% (second compound 3.16 µM, first compound 1 µM). Moreover, the viability, T/C runs as follows: (second compound 10 µM, first compound 0.00316 µM) 35.2%; (second compound 10 µM, first compound 0.01 µM) 27.7%; (second compound 10 µM, first compound 0.0316 µM) 26.4%; (second compound 10 µM, first compound 0.1 µM) 15.5%; (second compound 10 µM, first compound 0.316 µM) 15.2%; (second compound 10 µM, first compound 1 µM) 10.5%.
